The source made the active and inactive calls.
How the values were obtained:
Large T antigen = Large T antigen (Simian virus 40, UniProt P03070); type: functional, Betapolyomavirus macacae;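 further: Confirmatory-stage PubChem screen for compounds that inhibit SV40 T antigen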
[1] = molecular target: T1, Mannose-6-phosphate isomerase (Homo sapiens, UniProt P34949); test: PMI enzyme inhibitors, confirmation, biochemical, fluorescence intensity (AID 1535)
T1 sequence (P34949 whole entry): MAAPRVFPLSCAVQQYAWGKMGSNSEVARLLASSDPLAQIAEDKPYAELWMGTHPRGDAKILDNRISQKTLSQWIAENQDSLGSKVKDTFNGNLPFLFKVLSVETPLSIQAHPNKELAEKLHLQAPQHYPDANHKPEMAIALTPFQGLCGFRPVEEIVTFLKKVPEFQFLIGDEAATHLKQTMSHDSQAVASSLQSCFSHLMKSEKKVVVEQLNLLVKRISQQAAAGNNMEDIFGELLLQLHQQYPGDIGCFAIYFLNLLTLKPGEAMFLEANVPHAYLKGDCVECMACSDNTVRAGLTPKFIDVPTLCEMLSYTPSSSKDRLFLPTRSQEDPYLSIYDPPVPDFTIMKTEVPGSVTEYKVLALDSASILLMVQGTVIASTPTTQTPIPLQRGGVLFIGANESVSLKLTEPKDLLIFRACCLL

[2] = molecular target: DNA dC->dU-editing enzyme APOBEC-3A (Homo sapiens, UniProt P31941); test: APOBEC3A DNA deaminase inhibitors, dose response, biochemical (AID 504722); type: functional
Phosphomannomutase 2 = molecular target: T2, Phosphomannomutase 2 (Homo sapiens, UniProt O15305); test: Counter screen SAR assay for PMM2 inhibitors via a fluorescence intensity assay. [Related pubchem assays (depositor defined):AID1545, AID1574]
T2 sequence (O15305 whole entry): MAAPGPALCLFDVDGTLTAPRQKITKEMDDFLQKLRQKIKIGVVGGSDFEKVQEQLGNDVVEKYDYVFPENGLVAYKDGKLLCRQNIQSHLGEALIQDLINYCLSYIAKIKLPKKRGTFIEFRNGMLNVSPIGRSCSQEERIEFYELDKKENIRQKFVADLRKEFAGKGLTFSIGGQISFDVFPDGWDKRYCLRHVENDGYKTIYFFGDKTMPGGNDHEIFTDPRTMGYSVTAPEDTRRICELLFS

[3] = molecular target: DNA dC->dU-editing enzyme APOBEC-3G (Homo sapiens, UniProt Q9HC16); test: Dose Response confirmation of small molecule APOBEC3G DNA Deaminase Inhibitors via a fluorescence-based single-stranded DNA deaminase assay. [Related pubchem assays (depositor defined):AID493012, AID493028]; type: functional
[4] = molecular target: Mitochondrial peptide methionine sulfoxide reductase (Bos taurus, UniProt P54149); test: Absorbance-based biochemical high throughput dose response assay for activators of Methionine sulfoxide reductase A (MsrA).; type: functional
[5] = molecular target: Induced myeloid leukemia cell differentiation protein Mcl-1 (Homo sapiens, UniProt Q07820); type: functional
[6] = molecular target: Glucose-6-phosphate 1-dehydrogenase (Homo sapiens, UniProt P11413); test: human G6PD enzyme inhibitors, dose response, selectivity assay for P. falciparum G6PD inhibitor project, biochemical, fluorescence (AID 504792); type: functional
Hexokinase HKDC1 = molecular target: T3, Hexokinase HKDC1 (Homo sapiens, UniProt Q2TB90); test: HKDC1 hexokinase inhibitors, dose response, biochemical, W721R variant (AID 504729); type: functional
T3 sequence (Q2TB90 whole entry): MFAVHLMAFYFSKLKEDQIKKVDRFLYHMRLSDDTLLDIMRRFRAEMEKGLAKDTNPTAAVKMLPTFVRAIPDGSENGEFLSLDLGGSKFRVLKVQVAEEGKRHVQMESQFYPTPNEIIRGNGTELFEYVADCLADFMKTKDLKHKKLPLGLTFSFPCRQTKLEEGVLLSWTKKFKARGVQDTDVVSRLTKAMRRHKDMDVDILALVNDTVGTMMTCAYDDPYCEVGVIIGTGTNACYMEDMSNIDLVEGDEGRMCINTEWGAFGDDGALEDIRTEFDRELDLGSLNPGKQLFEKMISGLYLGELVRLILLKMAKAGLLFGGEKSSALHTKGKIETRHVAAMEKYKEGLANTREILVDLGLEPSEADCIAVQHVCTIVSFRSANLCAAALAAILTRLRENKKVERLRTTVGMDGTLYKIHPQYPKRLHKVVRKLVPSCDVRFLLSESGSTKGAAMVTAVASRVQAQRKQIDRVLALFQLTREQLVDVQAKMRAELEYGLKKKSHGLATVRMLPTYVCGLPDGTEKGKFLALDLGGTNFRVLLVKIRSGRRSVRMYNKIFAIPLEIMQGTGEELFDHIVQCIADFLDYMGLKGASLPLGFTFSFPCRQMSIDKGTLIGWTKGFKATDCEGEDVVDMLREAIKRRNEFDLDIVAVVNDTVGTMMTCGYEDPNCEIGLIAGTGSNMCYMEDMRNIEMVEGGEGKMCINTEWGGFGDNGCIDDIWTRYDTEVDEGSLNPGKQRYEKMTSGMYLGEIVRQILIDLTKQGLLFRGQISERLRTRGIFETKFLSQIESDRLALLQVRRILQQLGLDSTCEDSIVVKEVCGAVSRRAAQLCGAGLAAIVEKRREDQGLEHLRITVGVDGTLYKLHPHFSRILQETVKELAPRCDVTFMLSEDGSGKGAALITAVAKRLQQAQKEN

[7] = molecular target: T4, Replicative DNA helicase DnaB (Mycobacterium tuberculosis, UniProt P9WMR3); test: DnaB intein splicing inhibitors, dose response, biochemical, cell-free fluorescence (AID 449749); type: functional
T4 sequence (P9WMR3 whole entry): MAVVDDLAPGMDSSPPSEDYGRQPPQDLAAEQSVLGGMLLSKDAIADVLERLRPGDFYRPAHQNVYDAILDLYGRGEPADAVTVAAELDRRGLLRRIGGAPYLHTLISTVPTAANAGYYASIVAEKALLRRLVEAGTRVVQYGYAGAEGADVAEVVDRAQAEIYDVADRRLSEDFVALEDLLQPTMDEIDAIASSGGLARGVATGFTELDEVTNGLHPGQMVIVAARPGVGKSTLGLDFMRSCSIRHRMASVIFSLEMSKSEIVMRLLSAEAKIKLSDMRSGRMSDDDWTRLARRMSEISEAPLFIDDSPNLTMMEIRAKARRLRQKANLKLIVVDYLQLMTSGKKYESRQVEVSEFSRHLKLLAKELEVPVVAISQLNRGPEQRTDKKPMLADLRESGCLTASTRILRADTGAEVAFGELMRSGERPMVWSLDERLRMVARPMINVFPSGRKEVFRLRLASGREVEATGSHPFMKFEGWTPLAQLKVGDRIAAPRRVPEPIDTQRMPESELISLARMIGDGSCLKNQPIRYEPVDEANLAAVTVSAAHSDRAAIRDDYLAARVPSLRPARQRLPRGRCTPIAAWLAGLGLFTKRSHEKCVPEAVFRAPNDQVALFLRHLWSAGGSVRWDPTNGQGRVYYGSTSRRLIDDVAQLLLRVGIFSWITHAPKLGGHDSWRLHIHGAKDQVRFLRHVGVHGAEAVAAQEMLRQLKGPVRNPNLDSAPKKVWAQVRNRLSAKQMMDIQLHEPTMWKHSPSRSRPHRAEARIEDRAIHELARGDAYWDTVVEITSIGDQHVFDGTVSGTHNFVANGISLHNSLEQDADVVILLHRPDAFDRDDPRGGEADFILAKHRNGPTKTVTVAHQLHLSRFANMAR

Protein RecA = molecular target: T5, Protein RecA (Mycobacterium tuberculosis, UniProt P9WHJ3); test: Fluorescence Cell-Free Homogeneous Dose Retest to Identify Inhibitors of RecA-Intein Splicing Activity. [Related pubchem assays (depositor defined):AID2097, AID2223, AID489010, AID492950]; type: functional
T5 sequence (P9WHJ3 whole entry): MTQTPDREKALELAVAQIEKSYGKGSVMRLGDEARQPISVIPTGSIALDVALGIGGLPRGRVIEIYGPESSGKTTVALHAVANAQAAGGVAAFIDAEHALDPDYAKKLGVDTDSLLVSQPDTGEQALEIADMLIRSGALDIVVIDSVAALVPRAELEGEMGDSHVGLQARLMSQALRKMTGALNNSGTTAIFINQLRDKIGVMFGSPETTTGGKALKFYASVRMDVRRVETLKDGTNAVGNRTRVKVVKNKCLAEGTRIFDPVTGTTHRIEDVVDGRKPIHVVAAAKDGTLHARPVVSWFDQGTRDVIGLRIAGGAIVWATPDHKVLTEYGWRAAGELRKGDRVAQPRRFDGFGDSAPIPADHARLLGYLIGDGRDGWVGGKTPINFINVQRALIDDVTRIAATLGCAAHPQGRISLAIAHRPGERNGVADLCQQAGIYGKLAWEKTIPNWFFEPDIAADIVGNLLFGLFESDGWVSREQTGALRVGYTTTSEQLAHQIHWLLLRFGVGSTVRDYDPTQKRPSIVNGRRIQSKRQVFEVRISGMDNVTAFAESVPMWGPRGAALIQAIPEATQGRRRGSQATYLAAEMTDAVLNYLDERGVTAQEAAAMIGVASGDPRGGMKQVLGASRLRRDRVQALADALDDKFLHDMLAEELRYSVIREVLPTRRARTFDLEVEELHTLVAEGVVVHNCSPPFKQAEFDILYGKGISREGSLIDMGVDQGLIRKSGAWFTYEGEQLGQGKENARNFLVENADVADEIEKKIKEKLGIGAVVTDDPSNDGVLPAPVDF

Genome polyprotein = Genome polyprotein (dengue virus type 2, UniProt P29990); test: Dengue-2 NS5 methyltransferase inhibitors, primary screen, biochemical, confirmation dose response (AID 588689); type: functional
[8] = molecular target: Dual specificity protein phosphatase 3 (Homo sapiens, UniProt P51452); test: VHR1 inhibitor Ki determination, SAR follow-up, biochemical, colorimetric (AID 2004)
[9] = molecular target: DNA damage-inducible transcript 3 protein (Mus musculus, UniProt P35639); type: functional, Cricetulus griseus
[10] = molecular target: Glyceraldehyde-3-phosphate dehydrogenase (Homo sapiens, UniProt P04406)
[11] = molecular target: Alkaline phosphatase, placental type (Homo sapiens, UniProt P05187); test: PLAP enzyme inhibitors, confirmation, biochemical, luminescence (AID 1512); type: functional
[12] = molecular target: T6, Alkaline phosphatase, tissue-nonspecific isozyme (Homo sapiens, UniProt P05186); test: human TNAP enzyme inhibitors, SAR follow-up, biochemical, luminescent, dose response (AID 1056)
T6 sequence (P05186 whole entry): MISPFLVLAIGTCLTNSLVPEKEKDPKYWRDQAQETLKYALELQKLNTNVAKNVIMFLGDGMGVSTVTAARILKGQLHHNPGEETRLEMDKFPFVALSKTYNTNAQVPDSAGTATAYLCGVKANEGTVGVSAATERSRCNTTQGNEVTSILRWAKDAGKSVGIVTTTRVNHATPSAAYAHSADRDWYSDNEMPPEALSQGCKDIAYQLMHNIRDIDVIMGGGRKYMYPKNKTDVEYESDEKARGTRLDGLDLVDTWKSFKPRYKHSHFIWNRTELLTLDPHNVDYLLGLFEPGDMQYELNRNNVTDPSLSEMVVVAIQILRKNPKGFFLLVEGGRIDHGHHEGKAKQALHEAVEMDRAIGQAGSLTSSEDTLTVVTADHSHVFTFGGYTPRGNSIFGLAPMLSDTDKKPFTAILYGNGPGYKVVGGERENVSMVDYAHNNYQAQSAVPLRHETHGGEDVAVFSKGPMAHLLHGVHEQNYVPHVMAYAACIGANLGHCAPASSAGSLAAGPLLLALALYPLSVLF

[13] = inhibitors of intracellular T. cruzi replication, confirmation, NIH3T3 host cells, beta-gal luminescence (AID 2044); type: functional, cell-based;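 further: intracellular parasites grown in NIH/3T3 mouse fibroblasts as host cells; luminescent beta-galactosidase reporter signal from transgenic T. cruzi replicating inside host cells; inhibitors lower the luminescence signal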
[14] = cytotoxicity toward NIH3T3 fibroblasts, dose response, counter-screen, cell-based, ATP luminescence, mouse fibroblasts (AID 2010); type: functional;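 further: cells exposed to compound for about 90 hours before reading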
Coagulation factor XII = Coagulation factor XII (Homo sapiens, UniProt P00748); type: functional;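 further: activated factor XIIa alpha cleaving a fluorogenic AMC peptide substrate; inhibitor potency from loss of enzyme activity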
[15] = molecular target: Neurotensin receptor type 1 (Homo sapiens, UniProt P30989); type: functional;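 further: Image-based confirmatory dose-response assay measuring agonist activity at NTR1; NTR1-expressing U2OS osteosarcoma cells imaged for beta-arrestin GFP spot formation; agonist potency where compounds increase beta-arrestin recruitment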
[16] = molecular target: E3 ubiquitin-protein ligase Mdm2 (Homo sapiens, UniProt Q00987); test: enhancers of MDM2-luciferase reporter signal, concentration-effect titration, project on inhibitors of MDM2 ubiquitin ligase, cellular assay, luminescent readout, 384-well plate format (AID 1394); type: functional;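 further: MDM2 E3 inhibitors raise luminescence so EC50 is for signal enhancement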
[17] = cytotoxicity in HEK-293T cells, dose response, cytotoxicity control for TCR NF-kB inhibitor project, luminescence, T-cell screen hits (AID 489026); type: functional, cell-based;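 further: cells exposed to compound about 14 hours before the viability readout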
INS1 = test: beta cell apoptosis inhibitors, cytokine rescue, dose response, luminescence, retest (AID 449756); type: functional, cell-based; details: Rattus norvegicus;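 further: cell death triggered by IL-1 beta plus TNF-alpha plus IFN-gamma mixture; protective hits raise ATP signal compared with cytokine alone wells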

Chain of Dual specificity protein phosphatase 3 (P51452 whole entry): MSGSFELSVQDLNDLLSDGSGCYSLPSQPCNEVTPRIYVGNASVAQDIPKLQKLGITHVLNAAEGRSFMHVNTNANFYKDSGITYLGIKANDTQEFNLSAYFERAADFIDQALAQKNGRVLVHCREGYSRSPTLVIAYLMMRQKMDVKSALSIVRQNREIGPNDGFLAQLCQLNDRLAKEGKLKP
Chain of DNA damage-inducible transcript 3 protein (P35639 whole entry): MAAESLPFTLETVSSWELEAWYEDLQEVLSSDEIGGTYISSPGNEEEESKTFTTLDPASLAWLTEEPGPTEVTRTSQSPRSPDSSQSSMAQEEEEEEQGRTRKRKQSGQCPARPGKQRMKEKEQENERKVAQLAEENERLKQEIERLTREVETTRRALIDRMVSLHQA
Chain of Glyceraldehyde-3-phosphate dehydrogenase (P04406 whole entry): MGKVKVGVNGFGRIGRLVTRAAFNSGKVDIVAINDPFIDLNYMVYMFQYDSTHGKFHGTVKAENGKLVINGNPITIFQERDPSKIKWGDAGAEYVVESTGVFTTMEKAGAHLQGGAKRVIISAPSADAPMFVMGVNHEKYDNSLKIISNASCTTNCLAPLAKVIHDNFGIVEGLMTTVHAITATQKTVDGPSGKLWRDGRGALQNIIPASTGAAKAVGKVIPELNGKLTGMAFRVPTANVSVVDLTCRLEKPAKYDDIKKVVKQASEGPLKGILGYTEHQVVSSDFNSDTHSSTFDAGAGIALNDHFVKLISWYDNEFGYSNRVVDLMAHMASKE
Chain of DNA dC->dU-editing enzyme APOBEC-3G (Q9HC16 whole entry): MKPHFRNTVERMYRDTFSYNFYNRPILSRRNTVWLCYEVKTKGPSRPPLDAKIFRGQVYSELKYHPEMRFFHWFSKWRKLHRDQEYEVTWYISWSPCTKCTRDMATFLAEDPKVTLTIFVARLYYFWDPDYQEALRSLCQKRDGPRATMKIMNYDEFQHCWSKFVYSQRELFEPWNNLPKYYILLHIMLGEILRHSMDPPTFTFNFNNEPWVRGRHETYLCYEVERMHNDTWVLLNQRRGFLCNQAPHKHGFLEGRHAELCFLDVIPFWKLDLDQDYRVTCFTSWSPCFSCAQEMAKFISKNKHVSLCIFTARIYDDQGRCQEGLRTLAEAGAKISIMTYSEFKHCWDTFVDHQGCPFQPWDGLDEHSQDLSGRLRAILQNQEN
Chain of DNA dC->dU-editing enzyme APOBEC-3A (P31941 whole entry): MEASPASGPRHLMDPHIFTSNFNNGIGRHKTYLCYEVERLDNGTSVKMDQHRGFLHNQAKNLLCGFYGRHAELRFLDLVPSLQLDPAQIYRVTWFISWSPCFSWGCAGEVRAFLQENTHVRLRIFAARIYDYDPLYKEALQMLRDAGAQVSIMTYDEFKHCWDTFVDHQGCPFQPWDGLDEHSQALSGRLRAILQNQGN
Chain of Alkaline phosphatase, placental type (P05187 whole entry): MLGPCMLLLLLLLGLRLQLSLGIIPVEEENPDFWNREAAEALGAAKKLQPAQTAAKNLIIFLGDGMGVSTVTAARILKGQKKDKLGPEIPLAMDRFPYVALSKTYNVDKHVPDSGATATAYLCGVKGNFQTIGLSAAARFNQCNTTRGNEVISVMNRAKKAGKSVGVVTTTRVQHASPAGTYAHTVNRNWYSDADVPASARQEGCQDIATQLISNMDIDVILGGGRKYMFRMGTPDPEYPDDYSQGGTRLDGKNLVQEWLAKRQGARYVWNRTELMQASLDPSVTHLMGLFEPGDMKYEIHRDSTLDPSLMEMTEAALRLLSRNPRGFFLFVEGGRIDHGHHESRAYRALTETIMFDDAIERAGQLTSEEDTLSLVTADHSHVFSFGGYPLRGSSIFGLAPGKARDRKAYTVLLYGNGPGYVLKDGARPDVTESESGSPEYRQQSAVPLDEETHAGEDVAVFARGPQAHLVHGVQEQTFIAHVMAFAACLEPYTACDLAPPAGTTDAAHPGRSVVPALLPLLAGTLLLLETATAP
Chain of Induced myeloid leukemia cell differentiation protein Mcl-1 (Q07820 whole entry): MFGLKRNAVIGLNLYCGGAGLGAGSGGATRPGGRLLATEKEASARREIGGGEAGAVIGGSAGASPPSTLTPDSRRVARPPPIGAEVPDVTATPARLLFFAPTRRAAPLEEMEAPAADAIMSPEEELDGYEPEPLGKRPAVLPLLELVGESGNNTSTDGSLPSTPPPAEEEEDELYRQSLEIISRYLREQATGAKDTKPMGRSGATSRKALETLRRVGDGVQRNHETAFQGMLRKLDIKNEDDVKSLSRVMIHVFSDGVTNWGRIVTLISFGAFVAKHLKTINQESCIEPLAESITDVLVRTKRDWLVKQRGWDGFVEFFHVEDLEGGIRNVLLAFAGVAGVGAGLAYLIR
Chain of Neurotensin receptor type 1 (P30989 whole entry): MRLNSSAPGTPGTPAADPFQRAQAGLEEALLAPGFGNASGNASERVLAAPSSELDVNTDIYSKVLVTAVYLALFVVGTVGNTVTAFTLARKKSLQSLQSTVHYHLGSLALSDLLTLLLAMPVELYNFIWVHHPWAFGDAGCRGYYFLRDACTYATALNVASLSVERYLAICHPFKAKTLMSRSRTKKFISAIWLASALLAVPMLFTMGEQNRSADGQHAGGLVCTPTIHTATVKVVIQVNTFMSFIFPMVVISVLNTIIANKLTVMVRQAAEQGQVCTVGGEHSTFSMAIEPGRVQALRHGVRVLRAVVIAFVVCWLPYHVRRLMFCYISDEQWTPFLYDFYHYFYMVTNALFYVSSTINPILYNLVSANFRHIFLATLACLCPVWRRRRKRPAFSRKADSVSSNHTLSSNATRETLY
Chain of Glucose-6-phosphate 1-dehydrogenase (P11413 whole entry): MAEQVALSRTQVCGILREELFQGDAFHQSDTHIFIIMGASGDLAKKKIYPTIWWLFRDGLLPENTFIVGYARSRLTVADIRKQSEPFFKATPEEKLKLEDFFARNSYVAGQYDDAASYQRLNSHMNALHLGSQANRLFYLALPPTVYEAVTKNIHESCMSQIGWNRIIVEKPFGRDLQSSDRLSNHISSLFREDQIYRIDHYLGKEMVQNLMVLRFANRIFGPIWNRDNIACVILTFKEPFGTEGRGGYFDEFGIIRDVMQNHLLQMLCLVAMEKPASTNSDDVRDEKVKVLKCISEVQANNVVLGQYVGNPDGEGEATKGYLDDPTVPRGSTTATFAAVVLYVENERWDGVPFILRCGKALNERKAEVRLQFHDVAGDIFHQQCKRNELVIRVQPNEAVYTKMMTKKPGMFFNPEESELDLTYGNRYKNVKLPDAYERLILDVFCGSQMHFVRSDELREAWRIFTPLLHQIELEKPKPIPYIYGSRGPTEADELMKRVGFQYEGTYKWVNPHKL
Chain of Mitochondrial peptide methionine sulfoxide reductase (P54149 whole entry): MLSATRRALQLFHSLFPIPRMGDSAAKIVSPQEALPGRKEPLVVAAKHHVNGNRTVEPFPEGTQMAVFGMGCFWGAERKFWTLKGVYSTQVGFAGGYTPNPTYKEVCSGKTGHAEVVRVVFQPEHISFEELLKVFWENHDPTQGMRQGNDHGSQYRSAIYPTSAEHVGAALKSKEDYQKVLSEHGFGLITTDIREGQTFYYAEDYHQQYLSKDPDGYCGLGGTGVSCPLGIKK
Chain of Large T antigen (P03070 whole entry): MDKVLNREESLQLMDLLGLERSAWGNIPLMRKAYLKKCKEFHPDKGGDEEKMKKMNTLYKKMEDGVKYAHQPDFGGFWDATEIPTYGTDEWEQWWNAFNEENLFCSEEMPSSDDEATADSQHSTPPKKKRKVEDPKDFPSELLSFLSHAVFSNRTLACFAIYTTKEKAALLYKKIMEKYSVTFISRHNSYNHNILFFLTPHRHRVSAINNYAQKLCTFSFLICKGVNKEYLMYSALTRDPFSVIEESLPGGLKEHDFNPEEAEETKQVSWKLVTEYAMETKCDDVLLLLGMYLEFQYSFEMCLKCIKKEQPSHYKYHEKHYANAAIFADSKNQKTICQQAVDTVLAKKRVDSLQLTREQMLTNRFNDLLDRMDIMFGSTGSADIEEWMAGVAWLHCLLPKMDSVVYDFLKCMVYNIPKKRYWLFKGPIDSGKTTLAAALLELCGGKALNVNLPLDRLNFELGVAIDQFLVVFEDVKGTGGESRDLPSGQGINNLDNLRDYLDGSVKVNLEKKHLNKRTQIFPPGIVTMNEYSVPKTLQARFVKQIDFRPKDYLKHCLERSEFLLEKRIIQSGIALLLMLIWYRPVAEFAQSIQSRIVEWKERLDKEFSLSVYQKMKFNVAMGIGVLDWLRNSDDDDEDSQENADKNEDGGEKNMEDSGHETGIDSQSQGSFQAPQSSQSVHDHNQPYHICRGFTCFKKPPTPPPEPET
Chain of Coagulation factor XII (P00748 20-372 limits assumed): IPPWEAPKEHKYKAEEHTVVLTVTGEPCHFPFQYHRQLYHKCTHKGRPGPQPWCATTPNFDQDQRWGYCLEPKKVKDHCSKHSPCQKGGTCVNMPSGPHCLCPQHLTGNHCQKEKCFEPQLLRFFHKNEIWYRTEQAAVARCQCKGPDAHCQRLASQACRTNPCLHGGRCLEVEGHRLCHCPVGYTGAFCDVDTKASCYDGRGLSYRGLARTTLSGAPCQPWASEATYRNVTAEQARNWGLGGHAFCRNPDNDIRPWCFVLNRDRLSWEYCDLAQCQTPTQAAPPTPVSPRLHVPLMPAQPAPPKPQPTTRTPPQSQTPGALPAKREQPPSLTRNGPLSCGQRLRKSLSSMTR
Chain of Coagulation factor XII (P00748 373-615 limits assumed): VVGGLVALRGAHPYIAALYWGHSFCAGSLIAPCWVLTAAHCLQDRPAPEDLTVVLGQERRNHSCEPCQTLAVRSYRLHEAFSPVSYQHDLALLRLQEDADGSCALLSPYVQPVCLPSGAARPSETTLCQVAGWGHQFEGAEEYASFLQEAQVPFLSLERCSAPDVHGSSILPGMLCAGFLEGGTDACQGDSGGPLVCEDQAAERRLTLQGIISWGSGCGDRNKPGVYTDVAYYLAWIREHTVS

COc1cc(-c2n[nH]c(=S)[nH]2)cc(OC)c1OC
IC50 (Large T antigen): 8.6 µM (active)
IC50 [1]: 38.9 µM (active)
IC50 [2]: > 100 µM (inactive)
IC50 (Phosphomannomutase 2): > 100 µM (inactive)
IC50 [3]: 3.13 µM (active)
EC50 [4]: > 104 µM (inactive)

Cc1nc(COC(=O)c2cc(O)c3ccccc3c2O)cs1
IC50 [5]: 4.84 µM (active)
IC50 [6]: > 80 µM (inactive)
IC50 (Hexokinase HKDC1): 12.1 µM (active)
AC50 [7]: 24.7 µM (active)
EC50 (Protein RecA): 5.24 µM (active)
IC50 (Genome polyprotein): 43.1 µM (active)

S=C(S)N(CCN(Cc1cccs1)C(=S)S)Cc1cccs1
Ki [8]: 36.3 µM (inactive)

Oc1ccc(/C=N/N2CCN(C3c4ccccc4-c4ccccc43)CC2)c(O)c1
Absolute IC50 (CHOP) [9]: 10 µM

O=C(c1cc(-c2cc(F)c(Cl)cc2Cl)n[nH]1)N1CCCC1
IC50 [10]: > 100 µM (not active)
IC50 [11]: > 100 µM (inactive)
IC50 [12]: > 100 µM (inactive)

COc1ccc(CN2CCN(C(=O)C3CCC(CNS(=O)(=O)c4ccccc4)CC3)CC2)c(OC)c1OC (stereo unspecified)
EC50 [13]: 0.503 µM (active)
EC50 [14]: > 60 µM (not active)
IC50 (Coagulation factor XII): > 50 µM (inactive)

CC1(C)c2ssc(=S)c2-c2ccccc2N1C(=O)CN1CCOCC1
Ki [8]: 40.5 µM (inactive)

O=S(=O)(Nc1cnc2ccccc2c1)c1ccccc1OC(F)(F)F
IC50 [10]: > 100 µM (not active)
IC50 [12]: 16.4 µM (active)

COc1ccc(C(=O)NN=C(S)NC2CCCCC2)cc1OC
IC50 [11]: > 100 µM (inactive)

C[C@H](NC(=O)c1nc[nH]c1C(=O)Nc1cccc(Cl)c1)c1ccccc1
EC50 [15]: 24 µM (inactive)

Sc1nncn1/N=C/c1ccc(Br)cc1
IC50 [2]: > 100 µM (inactive)
IC50 [3]: 2.72 µM (active)

C=C1C(=O)O[C@H]2C[C@@H](C)[C@@H]3C=CC(=O)[C@@]3(C)C[C@H]12 [AROMATICIN]
EC50 [16]: 0.59 µM (not active)
IC50 [17]: > 80 µM (inactive)
Absolute IC50 (CHOP) [9]: 10 µM
AC50 (INS1): 7.82 µM (active)

Source: ChEMBL document CHEMBL1201862, “PubChem BioAssay data set” (2004)
